# Experiments:
# [1] = tested on: winter wheat (Vershin variety); test: Winter wheat seed treatment with BHMPA salts: germination energy and germination rate; type: in vivo
# How it was run: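 Corn, winter wheat and rice seeds (50 per dish, on filter paper) were soaked for 1 h in BHMPA or its metal salts at 1·10^−6-1·10^−12%, with water as control. Germination energy was read on day 4 and germination rate on day 8 for wheat and day 7 for rice and corn, following GOST 12038-84, as the mean of four replicates.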
# rice (Diamant variety) = test: Rice seed treatment with BHMPA salts: germinating power; type: in vivo
# How it was run: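 Seeds (50 per Petri dish on two layers of filter paper) soaked 1 h in BHMPA or its Ca, Mg, Na, Co, Mn, Cu or Zn salts at 1·10^−6-1·10^−12%, with water controls. Germination energy read on day 4, germination on day 8 (wheat) or day 7 (rice, corn), as % means of four replicates. Germinating power taken as root and sprout length plus wet and dry mass per 100 seedlings.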
# [2] = winter wheat Vershin, 1·10^−6% solution
# [3] = winter wheat Vershin, 1·10^−7% solution
# [4] = winter wheat Vershin, 1·10^−8% solution
# [5] = winter wheat Vershin, 1·10^−9% solution
# [6] = winter wheat Vershin, 1·10^−10% solution
# [7] = winter wheat Vershin, 1·10^−11% solution
# [8] = winter wheat Vershin, 1·10^−12% solution
# [9] = winter wheat, comparative study vs Melaphen, 1·10^−9% solution
# [10] = rice seed treatment, comparison with Melaphen (Table XXXIII), solution 1 · 10^−11%
# [11] = rice seeds, solution concentration 1 · 10^−6%
# [12] = rice seeds, solution concentration 1 · 10^−7%
# [13] = rice seeds, solution concentration 1 · 10^−8%
# [14] = rice seeds, solution concentration 1 · 10^−9%
# [15] = rice seeds, solution concentration 1 · 10^−10%
# [16] = rice seeds, solution concentration 1 · 10^−11%
# [17] = rice seeds, solution concentration 1 · 10^−12%
# [18] = rice, vs control, 1·10^−11% solution
structure (smiles),measurement,setting,value
"O=P([O-])(CO)CO.[Na+] [Na-salt, Sodium BHMPA Salt]",Germination energy,[1]; [2],84.4%
same,Germination rate,[1]; [2],86.0%
same,Germination energy,[1]; [3],86.7%
same,Germination rate,[1]; [3],89.0%
same,Germination energy,[1]; [4],90.2%
same,Germination rate,[1]; [4],94.0%
same,Germination energy,[1]; [5],92.3%
same,Germination rate,[1]; [5],95.3%
same,Germination energy,[1]; [6],88.4%
same,Germination rate,[1]; [6],92.0%
same,Germination energy,[1]; [7],85.0%
same,Germination rate,[1]; [7],88.0%
same,Germination energy,[1]; [8],83.2%
same,Germination rate,[1]; [8],86.3%
same,Germination energy,[1]; [9],87.3%
same,Germination rate,[1]; [9],93.7%
same,optimum concentration for treating rice seeds before sowing,rice (Diamant variety); rice,1·10^−11%
same,"Length, root",rice (Diamant variety); [10],5.9 cm
same,"Length, root, + % to control",rice (Diamant variety); [10],23%
same,"Length, sprout",rice (Diamant variety); [10],3.4 cm
same,"Length, sprout, + % to control",rice (Diamant variety); [10],46%
same,"Mass, dry, root",rice (Diamant variety); [10],0.22 g/100 plantlings
same,"Mass, dry, root, + % to control",rice (Diamant variety); [10],5%
same,"Mass, dry, sprout",rice (Diamant variety); [10],0.26 g/100 plantlings
same,"Mass, dry, sprout, + % to control",rice (Diamant variety); [10],24%
same,"Mass, wet, root",rice (Diamant variety); [10],1.31 g/100 plantlings
same,"Mass, wet, root, + % to control",rice (Diamant variety); [10],34%
same,"Mass, wet, sprout",rice (Diamant variety); [10],2.22 g/100 plantlings
same,"Mass, wet, sprout, + % to control",rice (Diamant variety); [10],47%
same,"Length, root",rice (Diamant variety); [11],5.4 cm
same,"Length, root, + % to control",rice (Diamant variety); [11],4%
same,"Length, sprout",rice (Diamant variety); [11],2.3 cm
same,"Length, sprout, + % to control",rice (Diamant variety); [11],9.5%
same,"Mass, dry, root",rice (Diamant variety); [11],0.21 g/100 plantlings
same,"Mass, dry, root, + % to control",rice (Diamant variety); [11],5%
same,"Mass, dry, sprout",rice (Diamant variety); [11],0.28 g/100 plantlings
same,"Mass, dry, sprout, + % to control",rice (Diamant variety); [11],8%
same,"Mass, wet, root",rice (Diamant variety); [11],1.06 g/100 plantlings
same,"Mass, wet, root, + % to control",rice (Diamant variety); [11],16.5%
same,"Mass, wet, sprout",rice (Diamant variety); [11],1.73 g/100 plantlings
same,"Mass, wet, sprout, + % to control",rice (Diamant variety); [11],5.5%
same,"Length, root",rice (Diamant variety); [12],5.6 cm
same,"Length, root, + % to control",rice (Diamant variety); [12],8%
same,"Length, sprout",rice (Diamant variety); [12],2.4 cm
same,"Length, sprout, + % to control",rice (Diamant variety); [12],14%
same,"Mass, dry, root",rice (Diamant variety); [12],0.22 g/100 plantlings
same,"Mass, dry, root, + % to control",rice (Diamant variety); [12],10%
same,"Mass, dry, sprout",rice (Diamant variety); [12],0.30 g/100 plantlings
same,"Mass, dry, sprout, + % to control",rice (Diamant variety); [12],15%
same,"Mass, wet, root",rice (Diamant variety); [12],1.10 g/100 plantlings
same,"Mass, wet, root, + % to control",rice (Diamant variety); [12],21%
same,"Mass, wet, sprout",rice (Diamant variety); [12],1.81 g/100 plantlings
same,"Mass, wet, sprout, + % to control",rice (Diamant variety); [12],10%
same,"Length, root",rice (Diamant variety); [13],5.8 cm
same,"Length, root, + % to control",rice (Diamant variety); [13],11.5%
same,"Length, sprout",rice (Diamant variety); [13],2.6 cm
same,"Length, sprout, + % to control",rice (Diamant variety); [13],24%
same,"Mass, dry, root",rice (Diamant variety); [13],0.23 g/100 plantlings
same,"Mass, dry, root, + % to control",rice (Diamant variety); [13],15%
same,"Mass, dry, sprout",rice (Diamant variety); [13],0.31 g/100 plantlings
same,"Mass, dry, sprout, + % to control",rice (Diamant variety); [13],19%
same,"Mass, wet, root",rice (Diamant variety); [13],1.14 g/100 plantlings
same,"Mass, wet, root, + % to control",rice (Diamant variety); [13],25%
same,"Mass, wet, sprout",rice (Diamant variety); [13],1.89 g/100 plantlings
same,"Mass, wet, sprout, + % to control",rice (Diamant variety); [13],15%
same,"Length, root",rice (Diamant variety); [14],6.0 cm
same,"Length, root, + % to control",rice (Diamant variety); [14],15%
same,"Length, sprout",rice (Diamant variety); [14],2.8 cm
same,"Length, sprout, + % to control",rice (Diamant variety); [14],33%
same,"Mass, dry, root",rice (Diamant variety); [14],0.25 g/100 plantlings
same,"Mass, dry, root, + % to control",rice (Diamant variety); [14],25%
same,"Mass, dry, sprout",rice (Diamant variety); [14],0.33 g/100 plantlings
same,"Mass, dry, sprout, + % to control",rice (Diamant variety); [14],27%
same,"Mass, wet, root",rice (Diamant variety); [14],1.17 g/100 plantlings
same,"Mass, wet, root, + % to control",rice (Diamant variety); [14],28.5%
same,"Mass, wet, sprout",rice (Diamant variety); [14],2.00 g/100 plantlings
same,"Mass, wet, sprout, + % to control",rice (Diamant variety); [14],22%
same,"Length, root",rice (Diamant variety); [15],6.3 cm
same,"Length, root, + % to control",rice (Diamant variety); [15],21%
same,"Length, sprout",rice (Diamant variety); [15],3.5 cm
same,"Length, sprout, + % to control",rice (Diamant variety); [15],58%
same,"Mass, dry, root",rice (Diamant variety); [15],0.27 g/100 plantlings
same,"Mass, dry, root, + % to control",rice (Diamant variety); [15],35%
same,"Mass, dry, sprout",rice (Diamant variety); [15],0.35 g/100 plantlings
same,"Mass, dry, sprout, + % to control",rice (Diamant variety); [15],35%
same,"Mass, wet, root",rice (Diamant variety); [15],1.26 g/100 plantlings
same,"Mass, wet, root, + % to control",rice (Diamant variety); [15],38%
same,"Mass, wet, sprout",rice (Diamant variety); [15],2.18 g/100 plantlings
same,"Mass, wet, sprout, + % to control",rice (Diamant variety); [15],33%
same,"Length, root",rice (Diamant variety); [16],6.4 cm
same,"Length, root, + % to control",rice (Diamant variety); [16],23%
same,"Length, sprout",rice (Diamant variety); [16],4.0 cm
same,"Length, sprout, + % to control",rice (Diamant variety); [16],90%
same,"Mass, dry, root",rice (Diamant variety); [16],0.30 g/100 plantlings
same,"Mass, dry, root, + % to control",rice (Diamant variety); [16],50%
same,"Mass, dry, sprout",rice (Diamant variety); [16],0.39 g/100 plantlings
same,"Mass, dry, sprout, + % to control",rice (Diamant variety); [16],50%
same,"Mass, wet, root",rice (Diamant variety); [16],1.35 g/100 plantlings
same,"Mass, wet, root, + % to control",rice (Diamant variety); [16],48%
same,"Mass, wet, sprout",rice (Diamant variety); [16],2.30 g/100 plantlings
same,"Mass, wet, sprout, + % to control",rice (Diamant variety); [16],40%
same,"Length, root",rice (Diamant variety); [17],6.2 cm
same,"Length, root, + % to control",rice (Diamant variety); [17],19%
same,"Length, sprout",rice (Diamant variety); [17],3.6 cm
same,"Length, sprout, + % to control",rice (Diamant variety); [17],71%
same,"Mass, dry, root",rice (Diamant variety); [17],0.26 g/100 plantlings
same,"Mass, dry, root, + % to control",rice (Diamant variety); [17],30%
same,"Mass, dry, sprout",rice (Diamant variety); [17],0.33 g/100 plantlings
same,"Mass, dry, sprout, + % to control",rice (Diamant variety); [17],27%
same,"Mass, wet, root",rice (Diamant variety); [17],1.18 g/100 plantlings
same,"Mass, wet, root, + % to control",rice (Diamant variety); [17],30%
same,"Mass, wet, sprout",rice (Diamant variety); [17],2.23 g/100 plantlings
same,"Mass, wet, sprout, + % to control",rice (Diamant variety); [17],36%
same,dry mass of the roots increased by,rice (Diamant variety); [18],50%
same,dry mass of the sprouts increased by,rice (Diamant variety); [18],50%
same,length of the root increased by,rice (Diamant variety); [18],23%
same,length of the sprout increased by,rice (Diamant variety); [18],90%
same,wet mass of the roots increased by,rice (Diamant variety); [18],48%
same,wet mass of the sprouts increased by,rice (Diamant variety); [18],40%

# From US10781224B2, “Bis(oxymethyl)phosphinic acid and biogenic metal salts thereof as regulators of plant growth and development” (priority 2016, dated 2020)
